The values below are quoted from earlier work in patent EP3728136B1 (Easymining Sweden AB, priority 2017, dated 2019).

This data set deals with biogas-producing bacteria. Particulars: concentration of free ammonia increased to 620 mg/l; Siles et al., 2010.

Each structure is given as a SMILES string.

In the case of `N` [ammonia], the “gradual decrease of biogas production” value is on record as 21%.
